The source of these data is US7425640B2, “Substituted 5-carboxyamide pyrazoles and [1,2,4]triazoles as antiviral agents” (priority 2004, dated 2008).

The target of one assay is HCV RNA-dependent RNA polymerase NS5B (Δ21) (Hepatitis C virus genotype 1b, UniProt P26663). As to the kind of experiment: Assay for HCV RNA-dependent RNA polymerase activity (SPA, [3H]-GTP incorporation). The assay is classed as biochemical. Particulars: read-out: Δ21 Activity (IC50 μM); 50 nM NS5B (Δ21), class symbols. Here is the method: Inhibitory activity of the present compounds against HCV RNA-dependent RNA polymerase was assayed according to the methods disclosed in United States Patent Application US2004/038993, content of which is incorporated herein by reference; and those described in Ferrari, E.; Wright-Minogue, J.; Fang, J. W. S.; Baroudy, B. M.; Lau, J. Y. N.; Hong, Z. J. Virol. 1999, 73, 1649.
Sequence of HCV RNA-dependent RNA polymerase NS5B (Δ21) (P26663 2420-2989, stated change not applied): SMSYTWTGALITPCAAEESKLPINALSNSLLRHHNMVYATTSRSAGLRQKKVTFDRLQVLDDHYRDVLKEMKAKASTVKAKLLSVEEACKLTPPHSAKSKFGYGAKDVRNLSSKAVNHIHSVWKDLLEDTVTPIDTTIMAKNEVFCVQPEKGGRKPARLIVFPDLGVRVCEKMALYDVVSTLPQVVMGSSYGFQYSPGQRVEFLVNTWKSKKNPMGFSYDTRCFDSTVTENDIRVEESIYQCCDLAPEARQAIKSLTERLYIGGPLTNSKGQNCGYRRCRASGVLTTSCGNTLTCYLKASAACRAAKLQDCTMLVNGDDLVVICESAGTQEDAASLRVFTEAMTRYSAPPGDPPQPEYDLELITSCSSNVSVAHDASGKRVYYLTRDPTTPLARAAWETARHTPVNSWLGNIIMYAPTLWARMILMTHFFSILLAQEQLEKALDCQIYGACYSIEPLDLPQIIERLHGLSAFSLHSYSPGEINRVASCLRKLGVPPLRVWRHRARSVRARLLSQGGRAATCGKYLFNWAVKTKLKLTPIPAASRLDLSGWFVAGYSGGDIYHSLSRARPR
Briefly, 50 μl reactions containing 20 mM HEPES (pH 7.3), 7.5 mM DTT, 20 units/ml RNasIN, 0.5 μg/ml biotinylated oligoG12, 5 μg/ml polyC, 5 μM GTP, 20 μCi/ml [^3H]-GTP, 10 mM MgCl2, 60 mM NaCl, 100 μg/ml BSA, and 50 nM NS5B (Δ21) were incubated at room temperature for three hours in 96-well plates with or without test compounds. Assay was terminated by the addition of 50 μl 10 mg/ml streptavidin-coated SPA beads supplemented with 100 mM EDTA, and the incorporation of labeled GTP determined by a TopCount Scintillation Counter. IC50 values were calculated from single experiments using 11 serial 2-fold dilutions (0.05-50 μM), and data were considered reliable only when the IC50 value of a positive internal control was within standard deviation range.
The term IC50 denotes the concentration needed to halve the response being measured. Turning to `NC(=O)c1cc(C(=O)N[C@H]2CCCC[C@@H]2OCc2ccccc2)n(CC(=O)N[C@H]2CCCC[C@@H]2OCc2ccccc2)n1` [Compound 157], the IC50 was 0.1 to 1 µM.

Consider `N#Cc1ccc(NNC(=O)c2cc(C(=O)N[C@H]3CCCC[C@@H]3OCc3ccccc3)n(CC(=O)N[C@H]3CCCC[C@@H]3OCc3ccccc3)n2)cc1` [Compound 154], for which the IC50 lay in the range of 0.1 to 1 µM.

Turning to `O=C(Cn1nc(NS(=O)(=O)c2ccc(Cl)c(Cl)c2)cc1C(=O)N[C@H]1CCCC[C@@H]1OCc1ccccc1)N[C@H]1CCCC[C@@H]1OCc1ccccc1` [Compound 61], the IC50 was in the range of 0.1 to 1 µM.

`Cc1ccc(OCC2CC2)c(NC(=O)c2cc(C(=O)O)nn2CC(=O)N[C@H]2CCCC[C@@H]2OCc2ccccc2)c1` [Compound 76]: the IC50 fell in the range of 0.1 to 1 µM.

On to `O=C(O)CNC(=O)c1cc(C(=O)N[C@H]2CCCC[C@@H]2OCc2ccccc2)n(CC(=O)N[C@H]2CCCC[C@@H]2OCc2ccccc2)n1` [Compound 153], for which the IC50 lay within 0.1 to 1 µM.

For `O=C(Cn1nc(C(=O)O)nc1C(=O)Nc1ccccc1OCc1ccccc1)N[C@H]1CCCC[C@@H]1OCc1ccccc1` [Compound 62], the IC50 is 0.1 to 1 µM.

As for `CCCCOCCCNC(=O)c1cc(C(=O)N[C@H]2CCCC[C@@H]2OCc2ccccc2)n(CC(=O)N[C@H]2CCCC[C@@H]2OCc2ccccc2)n1` [Compound 93], the IC50 fell in the range of 0.1 to 1 µM.

With `O=C(Cn1nc(C(=O)O)cc1C(=O)N[C@@H]1CCCC[C@@H]1OCc1ccccc1)N[C@H]1CCCC[C@H]1OCc1ccccc1` [Compound 132], the IC50 lay in the range of 0.1 to 1 µM.

Regarding `CC(C)(C)OC(=O)CNC(=O)c1cc(C(=O)N[C@H]2CCCC[C@@H]2OCc2ccccc2)n(CC(=O)N[C@H]2CCCC[C@@H]2OCc2ccccc2)n1` [Compound 105], the IC50 was 0.1 to 1 µM.

With `CC(=O)Nc1ccc(S(=O)(=O)Nc2cc(C(=O)N[C@H]3CCCC[C@@H]3OCc3ccccc3)n(CC(=O)N[C@H]3CCCC[C@@H]3OCc3ccccc3)n2)cc1` [Compound 82], the IC50 was 0.1 to 1 µM.

With `Cc1ccc(OCC2CCCCC2)c(NC(=O)c2cc(C(=O)Nc3nnn[nH]3)nn2CC(=O)N[C@H]2CCCC[C@@H]2OCc2ccccc2)c1` [Compound 125], the concentration for half-maximal inhibition (IC50) fell in the range of 0.1 to 1 µM.

Consider `CNC(=O)c1cc(C(=O)N[C@H]2CCCC[C@@H]2OCc2ccccc2)n(CC(=O)N[C@H]2CCCC[C@@H]2OCc2ccccc2)n1` [Compound 145], for which the half-inhibitory concentration (IC50) lay within 0.1 to 1 µM.

On to `O=C(Cn1nc(O)cc1C(=O)N[C@H]1CCCC[C@@H]1OCc1ccccc1)N[C@H]1CCCC[C@@H]1OCc1ccccc1` [Compound 69], for which the IC50 fell in the range of 0.1 to 1 µM.

For the molecule `O=C(Cn1nc(C(=O)N2CCCC3CC=CC=C32)cc1C(=O)N[C@H]1CCCC[C@@H]1OCc1ccccc1)N[C@H]1CCCC[C@@H]1OCc1ccccc1` (some centres unmarked) [Compound 86], the IC50 lay in the range of 0.1 to 1 µM.

Turning to `Cc1c(S(=O)(=O)Nc2cc(C(=O)N[C@H]3CCCC[C@@H]3OCc3ccccc3)n(CC(=O)N[C@H]3CCCC[C@@H]3OCc3ccccc3)n2)sc2ccc(Cl)cc12` [Compound 90], the IC50 fell in the range of 0.1 to 1 µM.

Take `Cc1c(Cl)cccc1S(=O)(=O)Nc1cc(C(=O)N[C@H]2CCCC[C@@H]2OCc2ccccc2)n(CC(=O)N[C@H]2CCCC[C@@H]2OCc2ccccc2)n1` [Compound 67]: the IC50 was 0.1 to 1 µM.

With `O=C(Cn1nc(NC(=O)C(F)(F)F)cc1C(=O)N[C@H]1CCCC[C@@H]1OCc1ccccc1)N[C@H]1CCCC[C@@H]1OCc1ccccc1` [Compound 75], the concentration for half-maximal inhibition (IC50) lay within 0.1 to 1 µM.

Take `CC(CNC(=O)c1cc(C(=O)N[C@H]2CCCC[C@@H]2OCc2ccccc2)n(CC(=O)N[C@H]2CCCC[C@@H]2OCc2ccccc2)n1)c1ccccc1` (some centres unmarked) [Compound 117]: the IC50 was in the range of 0.1 to 1 µM.

As to `O=C(O)CCCCCNC(=O)CCCCCNC(=O)c1cc(C(=O)N[C@H]2CCCC[C@@H]2OCc2ccccc2)n(CC(=O)N[C@H]2CCCC[C@@H]2OCc2ccccc2)n1` [Compound 165], the half-inhibitory concentration (IC50) lay within 0.1 to 1 µM.

As for `CC(=O)c1cc(C(=O)N[C@H]2CCCC[C@@H]2OCc2ccccc2)n(CC(=O)N[C@H]2CCCC[C@@H]2OCc2ccccc2)n1` [Compound 126], the half-maximal inhibitory concentration (IC50) fell in the range of 0.1 to 1 µM.

`O=C(Cn1nc(C(=O)NCc2cccnc2)cc1C(=O)N[C@H]1CCCC[C@@H]1OCc1ccccc1)N[C@H]1CCCC[C@@H]1OCc1ccccc1` [Compound 142]: the IC50 lay in the range of 0.1 to 1 µM.

Regarding `Cc1ccc(S(=O)(=O)Nc2cc(C(=O)N[C@H]3CCCC[C@@H]3OCc3ccccc3)n(CC(=O)N[C@H]3CCCC[C@@H]3OCc3ccccc3)n2)cc1` [Compound 106], the IC50 lay in the range of 0.1 to 1 µM.

Regarding `O=C(O)c1cc(C(=O)N[C@H]2CCCC[C@@H]2OCc2ccccc2)n(CS(=O)(=O)N[C@H]2CCCC[C@@H]2OCc2ccccc2)n1` [Compound 57], the half-maximal inhibitory concentration (IC50) lay in the range of 0.1 to 1 µM.

Turning to `O=C(Cn1nc(C(=O)O)cc1C(=O)N[C@H]1CCCC[C@@H]1OCc1ccccc1)N[C@H]1CCCC[C@@H]1NCc1ccccc1` [Compound 166], the IC50 is 0.1 to 1 µM.

The assay is the same for the next values; noted with them: Δ21 Activity (IC50 μM), 50 nM NS5B (Δ21), class symbols.
The molecule `CCOC(=O)CNC(=O)Nc1cc(C(=O)N[C@H]2CCCC[C@@H]2OCc2ccccc2)n(CC(=O)N[C@H]2CCCC[C@@H]2OCc2ccccc2)n1` [Compound 183] had an IC50 of over 1 µM.

Turning to `O=C(Cn1nc(C(=O)NC2CCCc3ccccc32)cc1C(=O)N[C@H]1CCCC[C@@H]1OCc1ccccc1)N[C@H]1CCCC[C@@H]1OCc1ccccc1` (some centres unmarked) [Compound 173], the IC50 is over 1 µM.

`O=C(Cn1nc(C(=O)Cc2ccccc2)cc1C(=O)N[C@H]1CCCC[C@@H]1OCc1ccccc1)N[C@H]1CCCC[C@@H]1OCc1ccccc1` [Compound 182] returned a concentration for half-maximal inhibition (IC50) of over 1 µM.

`O=C(Cn1nc(NS(=O)(=O)c2ccc(F)cc2)cc1C(=O)N[C@H]1CCCC[C@@H]1OCc1ccccc1)N[C@H]1CCCC[C@@H]1OCc1ccccc1` [Compound 35] came in with an IC50 of 0.05 to 0.1 µM.

Consider `CC(=O)Nc1cc(C(=O)N[C@H]2CCCC[C@@H]2OCc2ccccc2)n(CC(=O)NC2CCCC[C@@H]2OCc2ccccc2)n1` (some centres unmarked) [Compound 196], for which the half-inhibitory concentration (IC50) is over 1 µM.

As for `O=C(Cn1nc(C(=O)NCCO)cc1C(=O)N[C@H]1CCCC[C@@H]1OCc1ccccc1)N[C@H]1CCCC[C@@H]1OCc1ccccc1` [Compound 191], the IC50 is over 1 µM.

In the case of `O=C(Cn1nc(C(=O)O)cc1C(=O)N[C@H]1CCCC[C@@H]1OCc1ccccc1)NC1CCC[C@@H]1Sc1ccccc1` (some centres unmarked) [Compound 169], the IC50 was over 1 µM.

Take `O=C(Cn1nc(C(=O)NCCCn2ccnc2)cc1C(=O)N[C@H]1CCCC[C@@H]1OCc1ccccc1)N[C@H]1CCCC[C@@H]1OCc1ccccc1` [Compound 188]: the IC50 was over 1 µM.

Molecule `O=C(Cn1nc(C(=O)NCCc2ccccn2)cc1C(=O)N[C@H]1CCCC[C@@H]1OCc1ccccc1)N[C@H]1CCCC[C@@H]1OCc1ccccc1` [Compound 176] yielded an IC50 of over 1 µM.

As for `O=C(Cn1nc(C(=O)NCc2ccc(Cl)cc2)cc1C(=O)N[C@H]1CCCC[C@@H]1OCc1ccccc1)N[C@H]1CCCC[C@@H]1OCc1ccccc1` [Compound 46], the IC50 was in the range of 0.05 to 0.1 µM.

As for `O=C(Cn1nc(C(=O)O)cc1C(=O)Nc1cc(Br)ccc1OCC1CCCCC1)N[C@H]1CCCC[C@@H]1OCc1ccccc1` [Compound 12], the IC50 is under 0.05 µM.

The molecule `CCOCCN(CCOCC)C(=O)c1cc(C(=O)N[C@H]2CCCC[C@@H]2OCc2ccccc2)n(CC(=O)N[C@H]2CCCC[C@@H]2OCc2ccccc2)n1` [Compound 177] had an IC50 of over 1 µM.

`O=C(Cn1nc(NS(=O)(=O)c2ccc(C(F)(F)F)cc2)cc1C(=O)N[C@H]1CCCC[C@@H]1OCc1ccccc1)N[C@H]1CCCC[C@@H]1OCc1ccccc1` [Compound 47] showed an IC50 of 0.05 to 0.1 µM.

Regarding `CC(C)(O)c1cc(C(=O)N[C@H]2CCCC[C@@H]2OCc2ccccc2)n(CC(=O)N[C@H]2CCCC[C@@H]2OCc2ccccc2)n1` [Compound 190], the IC50 was over 1 µM.

Take `O=C(Cn1nc(C(=O)O)cc1C(=O)NC12CC3CC(CC(C3)C1)C2)NC1CCCC[C@@H]1OCc1ccccc1` (some centres unmarked) [Compound 207]: the IC50 is over 1 µM.

In the case of `O=C(Cn1nc(NS(=O)(=O)c2ccc(Cl)cc2)cc1C(=O)N[C@H]1CCCC[C@@H]1OCc1ccccc1)N[C@H]1CCCC[C@@H]1OCc1ccccc1` [Compound 11], the IC50 was under 0.05 µM.

Consider `C=CCOc1ccccc1NC(=O)Cn1nc(C(=O)O)cc1C(=O)N[C@H]1CCCC[C@@H]1OCc1ccccc1` [Compound 171], for which the IC50 was over 1 µM.

`Cc1ccc(OCc2ccccc2)c(NC(=O)c2nc(C(=O)O)nn2CC(=O)N[C@H]2CCCC[C@@H]2OCc2ccccc2)c1` [Compound 24]: the IC50 lay within 0.05 to 0.1 µM.

`COc1ccc(NC(=O)c2cc(C(=O)Nc3ccccc3OCc3ccccc3)n(CC(=O)N[C@H]3CCCC[C@@H]3OCc3ccccc3)n2)cc1` [Compound 29]: the IC50 is 0.05 to 0.1 µM.

Molecule `O=Cc1cc(C(=O)N[C@H]2CCCC[C@@H]2OCc2ccccc2)n(CC(=O)N[C@H]2CCCC[C@@H]2OCc2ccccc2)n1` [Compound 189] registered an IC50 of over 1 µM.

Staying with this assay, now noted: Δ21 Activity (IC50 μM), 50 nM NS5B (Δ21), numeric values.
`O=C(Cn1nc(C(=O)O)cc1C(=O)Nc1cc(Cl)ccc1OCC1CCCCC1)N[C@H]1CCCC[C@@H]1OCc1ccccc1` [drawing 242] displayed an IC50 of 0.02 µM.

The molecule `O=C(Cn1nc(-c2nnn[nH]2)cc1C(=O)N[C@H]1CCCC[C@@H]1OCc1ccccc1)N[C@H]1CCCC[C@@H]1OCc1ccccc1` yielded an IC50 of 0.05 µM.

`Cc1ccc(OCC2CCC2)c(NC(=O)c2cc(C(=O)O)nn2CC(=O)N[C@H]2CCCC[C@@H]2OCc2ccccc2)c1` [drawing 248]: the IC50 is 0.055 µM.
